Measurements as given in paper PMC12291119, “In Vitro Selection of Cyclized, Glycosylated Peptide Antigens That Tightly Bind HIV High Mannose Patch Antibodies” (ACS Central Science, 2025).
Ends that are not written are not given here.

Tests used:
[1] = biological target: PGT122; assay: Bead-based radiometric binding assay of ribosomally synthesized free peptides; conditions: free 3H-histidine-labelled peptide, no click glycosylation; 0, 100, 200, 400 nM antibody, 1 h room temperature, Protein G beads, LSC; Michaelis-Menten fit; preliminary
Procedure: The protocol used for cyclization while captured on resin was as follows: To 20 µL of crude translated peptide was added 80 µL of bind buffer with BME (50 mM Tris-HCl, pH 7.8, 300 mM NaCl, 5 mM BME) and 20 µL of HisPur™ Ni-NTA Resin (ThermoScientific). The mixture was tumbled at room temperature for 1 hour. Next, the mixture was spun down at 17,000 ×g, and the supernatant was carefully removed from the loosely-pelleted agarose.
The resin was washed three times with 160 µL of cyclization wash buffer with TCEP (50 mM Tris-HCl, pH 8.0, […]). To the resin was then added 160 µL of free peptide cyclization buffer (50 mM Tris-HCl, pH 8.0, 300 mM NaCl, 0.5 mM TCEP, 3.3 mM m-dibromoxylene, 33% (v/v) MeCN), and the mixture was covered in foil and tumbled at room temperature for 30 minutes. The supernatant was removed and 160 µL of cyclization wash buffer with BME (50 mM Tris-HCl, pH 8.0, 300 mM NaCl, 10 mM BME, 33% (v/v) MeCN) was added. The suspension was tumbled at room temperature for 10 minutes without aluminum foil to quench the reaction. The reaction was spun down, and the supernatant was removed. Next, the resin was resuspended in wash buffer (50 mM Tris-HCl, pH 7.8, 5 mM BME) and transferred to a 0.22 µm Ultrafree-MC Centrifugal Filter (MilliporeSigma). The tube was rinsed with 80 µL of wash buffer, and the rinse was added to the filter. The filter was then spun down at 10,000 ×g for 1 minute. The resin in the filter was washed twice with 160 µL of wash buffer. To elute the peptide, 20 µL 0.2% (v/v) TFA was added to the resin and allowed to sit at room temperature for 2 minutes before spinning down and collecting in a new tube. The elution step was carried out once more, with the eluent collected separately.
4. Radioactive Peptides for Bead-based Radiometric Binding Assay
For binding analysis, translation (50 µL) was carried out in the presence of PDF/MAP and 3H-histidine for radiolabeling. The crude peptides were purified by Ni-NTA agarose and, if the sequence contained two cysteine residues, was cyclized while captured on the Ni-NTA resin. The peptide eluents were combined and dialyzed as follows: To the combined eluents was added a solution of Triton X-100 in water for a final concentration of 0.1%.
Next, the peptides were dialyzed against 0.1% (v/v) Triton X-100 using a Slide-A-Lyzer™ MINI device (0.1 mL capacity, 3.5 kDa MWCO) (Thermo Scientific) at room temperature overnight. The dialyzed peptides were retrieved from the devices. The peptide solutions were concentrated to dryness by speedvac for the click reaction. […]
room temperature. While tumbling, Dynabeads™ Protein G (Invitrogen) were equilibrated with 1X selection buffer as follows: Steps were carried out using a multi-channel pipettor where possible. For each sequence, 8 µL of Protein G bead suspension was transferred to a 0.2 mL PCR tube in a strip. Next, 64 µL (8 bead vol.) of 1X selection buffer was added to the beads. The mixture was resuspended by gently vortexing, spun down briefly, and placed on a magnet for 1 minute. The supernatant was removed, and this wash was repeated two more times. The final supernatant was removed just prior to addition of the incubated peptide/antibody mixture. The mixture was allowed to tumble at room temperature for 30 minutes to capture antibodies and bound peptides. Next, the suspension was briefly spun down, placed on a magnet, and the supernatant was transferred to an individual 0.2 mL PCR tube. To wash the beads, 16 µL of 1X selection buffer was added, gently vortexed, spun down briefly, placed on a magnet for 1 minute, and the wash was transferred to the same PCR tube as the supernatant. This wash step was repeated twice more for a total of three washes, saved altogether with the supernatant as the “unbound” fraction. The beads were then resuspended in 50 µL of denaturing elute buffer. The suspension was heated at 95 °C for 5 minutes to denature […]

[2] = biological target: PGT122; assay: Bead-based radiometric binding assay of clones prepared as cDNA/mRNA-glycopeptide fusions; conditions: 2K CPM per sample, Protein G beads, LSC, preliminary
Procedure: antibodies, spun down briefly, placed on a magnet for 1 minute, and the eluent was transferred to an individual 0.2 mL PCR tube. The beads were washed with 50 µL of denaturing elute buffer, and the wash was placed into the same tube as the eluent. The combined eluent and wash represented the “bound” fraction. The beads were resuspended in 50 µL of denaturing elute buffer, vortexed, and directly placed into a vial with liquid scintillation cocktail for radioactivity measurements, though it was not included in calculations of fraction bound. Each of the tubes with the “unbound” and “bound” fractions were placed into vials for LSC. The tube in which the antibody and peptides were incubated were also measured by LSC, but not included in calculations of fraction bound. Fraction bound values for each antibody concentration after background adjustment were input into KaleidaGraph 4.1.1 for curve fitting to a […]
5. Clones Prepared as cDNA/mRNA-glycopeptide Fusions
Selected clones were also prepared as cDNA/mRNA-glycopeptide fusions for binding analysis. RNA (450-1000 pmol) was photo-crosslinked as described in Section IV.A.2 but with 10 µM transcribed RNA and 15 µM XL-PSO in 1X XL Buffer for annealing, and dilution to 100 µL for irradiation at 365 nm. XL-RNA was then purified by ethanol precipitation and 5% denaturing urea-PAGE with electroelution. Purified XL-RNA was translated in the presence of PDF/MAP and 3H-histidine for radiolabeling. Crude translation reactions were captured on Pierce™ Streptavidin UltraLink™ Resin (Thermo Scientific), subjected to reverse transcription, and cyclized as described for selection. Fusions were then washed and photo-eluted with 1X selection buffer instead of 0.2% (v/v) […]. […]
reverse transcription in preparation for photo-elution. Note: 2U3 was also cyclized despite having only one cysteine residue to better mimic its structure during selection. Fusions were then passed through 0.22 µm Ultrafree-MC Centrifugal Filters (MilliporeSigma), buffer exchanged by ethanol precipitation, and subjected to click reaction (5 µL) with Man9(GlcNAc)2-azide as described in Section II.A.8. Binding assays were performed analogously as with […]
as free peptides and cDNA/mRNA-glycopeptide fusions.
Name Click KD Ratio (No click : Click) KD Ratio (No click : Click) […]
a 2U3 was cyclized as a fusion but not as a free peptide.

[3] = tested on: HIV pseudovirus panel; conditions: ref number not given, cited from earlier work
Source text: We have sought to mimic HMP epitopes without using either the entire Env protein, which contains a plethora of “distracting” epitopes that easily elicit off-target antibodies; − or short glycopeptides directly derived from the Env sequence, which may not sufficiently recapitulate the HMP structure without the conformational support of the remaining Env protein. Aiming to design glycostructures that better mimic the glycan presentation in the HMP, we have pioneered various techniques for the directed evolution of DNA, , RNA, F-RNA, or peptide-supported , glycan clusters.

[4] = cDNA/mRNA-glycopeptide fusion, click-glycosylated with Man9(GlcNAc)2-azide
[5] = cDNA/mRNA-peptide fusion, no click glycosylation
[6] = diverse/representative HIV pseudovirus panel

Work on “AFIAYYFDLSQPNLHSPNFTLKIGDIREAQCMLTCDSAKPNPRVVPILALLI (also: sidechain bridge or staple (positions not given here)) [2B3c, ribosomally synthesized PGT122 selection clone, cyclized]” yielded a Kd [1] of 4490 nM, a Kd [2, 4] of 140 nM and a Kd [2, 5] of 99.7 nM.

Substance “AKTRTPMNLSGKSNIRYFFTIDNSTMFEDLFMRFPRSKEYHIELEEFKDLIR [2U7]” has a Kd [1] of 1430 nM, a Kd [2, 4] of 139 nM and a Kd [2, 5] of 300 nM.

For “ANNFICIRNIGDIRSARCMNVSAGRYAPYREFYFDITYDDFNKNVNIVITPV (also: sidechain bridge or staple (positions not given here)) [2B8c, ribosomally synthesized PGT122 selection clone, cyclized]”, the Kd [2, 4] was 108 nM and the Kd [2, 5] was 176 nM.

With “AHSLFNFQVRLKQLPLDANGAVIGDIRIAECMNHTYTPLTFYIYSNHPTDIQ [GB1, ribosomally synthesized gl-PGT121 selection clone]” the Kd [1] was 181 nM.

“ANPSFSVQFIVDLIGPNVMRITLSNKPFATICPITEGESHISKRFNFQLTIS [2U3c, ribosomally synthesized PGT122 selection clone; cyclized as a fusion but not as a free peptide]” gave a Kd [2, 4] of 449 nM and a Kd [2, 5] of 281 nM.

Substance “ALNLYQIVEFTIDESNDIVQLQIGDIRTADCMSLNKECYNIIFFSWDNHGKN (also: sidechain bridge or staple (positions not given here)) [2B4c, ribosomally synthesized PGT122 selection clone, cyclized]” has a Kd [1] of 158 nM, a Kd [2, 4] of 155 nM and a Kd [2, 5] of 44.4 nM.

With “AQYIDWEIDINQVPNQMNLSKPTWKSDITINKVKWSFYININQASNENTDNI [2U6, ribosomally synthesized PGT122 selection clone]” the Kd [1] was 166 nM, the Kd [2, 4] was 173 nM and the Kd [2, 5] was 96.7 nM.

With “ATLNIFSNFSIEPDSFYEIVLPIGDIRIAPCMSSFNRNGSTNNCYHFEINLF (also: sidechain bridge or staple (positions not given here)) [2B5c, ribosomally synthesized PGT122 selection clone, cyclized]” the Kd [1] was 212 nM, the Kd [2, 4] was 85.9 nM and the Kd [2, 5] was 314 nM.

Work on “AKTKTYLIRFHLDILPNDNLRSQKIRLIFGDKATVKGMITFLNDSELEWNFE [2U1, ribosomally synthesized PGT122 selection clone, tested with and without click glycosylation]” yielded a Kd [2, 4] of 29.8 nM and a Kd [2, 5] of 82.5 nM.

Substance “AYSIHFVCDINETPTNTSKAIFSIKCDITTPESTTRQLMITKHYHFPPTGTR (also: sidechain bridge or staple (positions not given here)) [2U8c, ribosomally synthesized PGT122 selection clone, cyclized]” has a Kd [2, 4] of 48.4 nM and a Kd [2, 5] of 173 nM.

For “PGT128: broad and very potent HIV bnAb binding the High Mannose Patch”, the “breadth (fraction of HIV pseudovirus panel neutralized)” value [3, 6] is given as 72%, the “median IC50” value [3, 6] is given as 0.02 µg/mL and the “potency (EC50)” value ([3]; neutralization potency) is given as 0.02 µg/mL.

With “AYPVYLRLPIGDIRIASCMFGDEPNTWTRDELNDYFYTESYNPQPITITFKC (also: sidechain bridge or staple (positions not given here)) [2B2c, ribosomally synthesized PGT122 selection clone, cyclized]” the Kd [1] was 1650 nM, the Kd [2, 4] was 116 nM and the Kd [2, 5] was 89 nM.

“AYVISFSIDQPDLDRPNIIRISIGDIRSAKCMKLDTINFAYRDDSSEVCYEK (also: sidechain bridge or staple (positions not given here)) [2B7c, ribosomally synthesized PGT122 selection clone, cyclized]” gave a Kd [1] of 29.8 nM, a Kd [2, 4] of 143 nM and a Kd [2, 5] of 66.2 nM.

Work on “ANPRIIFFELSIRNNSLKLLRWHDTQGIFHDSMTELSQHAELPRFKFHSNAA [GU1, ribosomally synthesized gl-PGT121 selection clone]” yielded a Kd [1] of 156 nM.
